Target: Lysine-specific histone demethylase 1A (Homo sapiens, UniProt O60341)
Experiment: Inhibition of recombinant LSD1 (unknown origin) expressed in Escherichia coli BL21 (DE3) using H3K4me2 peptide as substrate incubated for 30 mins by fluorescence based microplate reader assay

IC50: 0.909 µM
Structure (SMILES): CN1CCN(CCCN2c3ccccc3Sc3ccccc32)CC1 [PERAZINE]

— ChEMBL document CHEMBL5247647, “Phenothiazine-Based LSD1 Inhibitor Promotes T-Cell Killing Response of Gastric Cancer Cells” (J Med Chem, 2023)
